# Reference: US12404283B2, “c-MYC mRNA translation modulators and uses thereof in the treatment of cancer” (Anima Biotech Inc., priority 2022, dated 2025)
# Where a name gives a salt, the structure may show the parent alone.
# Tested on: c-Myc
# Assay: c-Myc immunofluorescence assay
# Type: cell-based, human
# Conditions: A549 cells, 24 hours treatment, anti-c-Myc immunofluorescence
# Method: A549 human non-small cell lung carcinoma cells were treated for 24 hours with increasing compound concentration, cells were fixed and stained with a nuclei stain (DAPI) and anti-c-Myc fluorescent antibody. The c-Myc signal was quantified by image analysis, and data was exported and analyzed using TIBCO Spotfire® (TIBCO Corporation). Dose response curves were generated and fitted with logaristic regression to calculate potency (EC50 values). Potency values are presented in Table 2 for all compounds and are shown for selected compounds (FIG. 4).
# A549 cells were grown in 384-wells plates (Perkin Elmer, Cat. 6057300) for 48 hours, treated with compounds and then fixed for 20 min in 4% paraformaldehyde. After that permeabilization was done using 0.1% Triton X-100 in PBS for 20 min. Primary anti-c-Myc antibody (Abcam, ab32072) staining was performed for 90 min at room temperature. Cells then were washed twice with PBS and incubated with secondary antibody (Abcam, ab150075) for 90 min at room temperature. Nuclei were stained with DAPI for 10 min and washed twice with PBS.
# Cell images were taken with Operetta (Perkin Elmer, USA), a wide-field fluorescence microscope at 20× magnification. After acquisition, the images were transferred to Columbus software (Perkin-Elmer) for image analysis. In Columbus, cells were identified by their nucleus, using the “Find Nuceli” module and cytoplasm was detected based on the secondary antibody channel. Subsequently, the fluorescent signal was enumerated in the identified cell region. Then data was exported to a data analysis and visualization software, Tibco Spotfire, USA.
row,SMILES,Myc Efficacy (−LogEC50)
1,"CCN(CC)CCCNC(=O)c1ccc2c(c1)sc1nc(-c3ccc(C(=O)NC4CCNCC4)cc3)cn12 [compound 287, N-(3-(diethylamino)propyl)-2-(4-(piperidin-4-ylcarbamoyl)phenyl)benzo [d]imidazo[2,1-b]thiazole-7-carboxamide]",+ (+ >3 and <5)
2,"CN1CCC(NC(=O)c2ccc3c(c2)sc2nc(-c4ccc(C5CNCCO5)cc4F)cn23)CC1 (centres unmarked) [Compound 519, 2-(2-fluoro-4-(morpholin-2-yl)phenyl)-N-(1-methylpiperidin-4-yl)benzo[d]imidazo[2,1-b]thiazole-7-carboxamide]",+++ (+++ ≥6)
3,"CN1CCC(NC(=O)c2ccc3c(c2)sc2nc(-c4ccc(C5CCNC5)cc4F)cn23)CC1 (centres unmarked) [Compound 505, 2-(2-fluoro-4-(pyrrolidin-3-yl)phenyl)-N-(1-methylpiperidin-4-yl)benzo[d]imidazo[2,1-b]thiazole-7-carboxamide]",+++ (+++ ≥6)
4,"CCN(CC)CCCNC(=O)c1ccc2c(c1)sc1nc(-c3cccc(CN)c3)cn12 [compound 299, 2-(3-(aminomethyl)phenyl)-N-(3-(diethylamino)propyl) benzo[d]imidazo[2,1-b] thiazole-7-carboxamide]",++ (++ ≥5 and <6)
5,"CNC(=O)c1ccc(-c2cn3c(n2)sc2cc(C(=O)NCC4CC(=O)N(C)C4)ccc23)cc1 (centres unmarked) [compound 252, N-((1-methyl-5-oxopyrrolidin-3-yl)methyl)-2-(4-(methylcarbamoyl)phenyl) benzo[d]imidazo[2,1-b]thiazole-7-carboxamide]",+ (+ >3 and <5)
6,"O=C(Nc1ccc2c(c1)sc1nc(-c3ccc(C4CCCN4)cc3F)cn12)C1CCOCC1 (centres unmarked) [Compound 594, N-(2-(2-fluoro-4-(pyrrolidin-2-yl)phenyl)benzo[d]imidazo[2,1-b]thiazol-7-yl)tetrahydro-2H-pyran-4-carboxamide hydrochloride]",+++ (+++ ≥6)
7,"CNC(=O)c1ccc(-c2cn3c(n2)sc2cc(C(=O)NCC4CCC5(CCNCC5)O4)ccc23)cc1 (centres unmarked) [compound 230, N-((1-oxa-8-azaspiro[4.5]decan-2-yl)methyl)-2-(4-(methylcarbamoyl)phenyl) benzo[d]imidazo[2,1-b]thiazole-7-carboxamide]",+ (+ >3 and <5)
8,"CNC(=O)c1ccc(-c2cn3c(n2)sc2cc(C(=O)N(C)CCCN4CCCCC4)ccc23)cc1 [compound 329, N-methyl-2-(4-(methylcarbamoyl)phenyl)-N-(3-(piperidin-1-yl)propyl)benzo[d]imidazo [2,1-b]thiazole-7-carboxamide]",+ (+ >3 and <5)
9,"CNC(=O)c1ccc(-c2cn3c(n2)sc2cc(C(=O)NC4CCNCC4)ccc23)cc1 [compound 185, 2-(4-(methylcarbamoyl)phenyl)-N-(piperidin-4-yl)benzo[d]imidazo[2,1-b]thiazole-7-carboxamide]",++ (++ ≥5 and <6)
10,"CCNC(=O)c1ccc2c(c1)sc1nc(-c3ccc(C)cc3)cn12 [compound 109, N-ethyl-2-(p-tolyl)benzo[d]imidazo[2,1-b]thiazole-7-carboxamide]",++ (++ ≥5 and <6)
11,"CCN(CC)CCCNC(=O)c1ccc2c(c1)sc1nc(N3CCOCC3)cn12 [compound 162, N-(3-(diethylamino)propyl)-2-morpholinobenzo[d]imidazo [2,1-b]thiazole-7-carboxamide]",− (− ≤3)
12,"CCN(CC)CCCNC(=O)c1ccc2c(c1)sc1nc(-c3ccncc3)cn12 [compound 161, N-(3-(diethylamino)propyl)-2-(pyridin-4-yl)benzo[d]imidazo[2,1-b]thiazole-7-carboxamide]",+++ (+++ ≥6)
13,"O=C(NCCCN1CCCCC1)c1ccc2c(c1)sc1nc(-c3ccc([C@H]4CCCN4)cc3F)cn12 [compound 417, (R)-2-(2-fluoro-4-(pyrrolidin-2-yl)phenyl)-N-(3-(piperidin-1-yl)propyl)benzo[d]imidazo [2,1-b]thiazole-7-carboxamide]",+++ (+++ ≥6)
14,"CNC(=O)c1ccc(-c2cn3c(n2)sc2cc(C(=O)N[C@@H](CO)CC(C)C)ccc23)cc1 [compound 192, (R)-N-(1-hydroxy-4-methylpentan-2-yl)-2-(4-(methylcarbamoyl)phenyl) benzo[d]imidazo[2,1-b]thiazole-7-carboxamide]",− (− ≤3)
15,"O=C(NCCCN1CCC(F)CC1)c1ccc2c(c1)sc1nc(-c3ccc(-c4ccn[nH]4)cc3F)cn12 [compound 487, 2-(2-fluoro-4-(1H-pyrazol-5-yl)phenyl)-N-(3-(4-fluoropiperidin-1-yl)propyl)benzo[d]imidazo[2,1-b]thiazole-7-carboxamide]",++ (++ ≥5 and <6)
16,"CC[C@H](NC(=O)c1ccc2c(c1)sc1nc(-c3ccc(C(=O)NC)cc3)cn12)c1ccnn1C [compound 242, (S)-N-(1-(1-methyl-1H-pyrazol-5-yl)propyl)-2-(4-(methylcarbamoyl)phenyl) benzo[d]imidazo[2,1-b] thiazole-7-carboxamide]",+ (+ >3 and <5)
17,"CNC(=O)c1ccc(-c2cn3c(n2)sc2cc(C(=O)NC(C)CCO)ccc23)cc1 (centres unmarked) [compound 187, N-(4-hydroxybutan-2-yl)-2-(4-(methylcarbamoyl)phenyl) benzo[d]imidazo[2,1-b]thiazole-7-carboxamide]",− (− ≤3)
18,"O=C(NCCCN1CCC(F)CC1)c1ccc2c(c1)sc1nc(-c3cc4c(cc3F)CNC4)cn12 [compound 454, 2-(6-fluoroisoindolin-5-yl)-N-(3-(4-fluoropiperidin-1-yl)propyl)benzo[d]imidazo [2,1-b]thiazole-7-carboxamide]",+++ (+++ ≥6)
19,"O=C(NC1CCOCC1)c1ccc2c(c1)sc1nc(-c3ccc(C4CCCN4)cc3F)cn12 (centres unmarked) [Compound 510, 2-(2-fluoro-4-(pyrrolidin-2-yl)phenyl)-N-(tetrahydro-2H-pyran-4-yl)benzo[d]imidazo[2,1-b]thiazole-7-carboxamide]",+++ (+++ ≥6)
20,"O=C(NC1CCOCC1)c1ccc2c(c1)sc1nc(-c3ccc(C4CCNCC4)cc3F)cn12 [Compound 529, 2-(2-fluoro-4-(piperidin-4-yl)phenyl)-N-(tetrahydro-2H-pyran-4-yl)benzo[d]imidazo[2,1-b]thiazole-7-carboxamide]",+++ (+++ ≥6)
21,"Cc1ccc(-c2cn3c(n2)sc2cc(C(=O)NC[C@H]4CCNC4)ccc23)cc1 [compound 114, (S)-N-(pyrrolidin-3-ylmethyl)-2-(p-tolyl)benzo[d]imidazo[2,1-b]thiazole-7-carboxamide formate]",++ (++ ≥5 and <6)
22,"O=C(NCCCN1CCC(F)CC1)c1ccc2c(c1)sc1nc(-c3ccc([C@H]4CCCN4)cc3F)cn12 [compound 419, (R)-2-(2-fluoro-4-(pyrrolidin-2-yl)phenyl)-N-(3-(4-fluoropiperidin-1-yl)propyl)benzo[d]imidazo [2,1-b]thiazole-7-carboxamide]",+++ (+++ ≥6)
23,"CNC(=O)c1ccc(-c2cn3c(n2)sc2cc(C(=O)N[C@H]4C[C@H](NC)C4)ccc23)cc1 [compound 247, N-((1r,3r)-3-(methylamino)cyclobutyl)-2-(4-(methylcarbamoyl)phenyl) benzo[d]imidazo[2,1-b] thiazole-7-carboxamide]",− (− ≤3)
